pIC50: −log10 of the molar value. “Also recorded” adds a separate entry of the source. Read-outs that look alike come from different tables or passages of the source.
Tests used:
ROS kinase [1] = target: T1, ROS kinase (Homo sapiens, UniProt P08922); assay: ROS kinase screening (HotSpot, IC50 mode); type: biochemical; parameters: purchased Reaction Biology Corporation; conditions: 10-dose IC50 mode starting from 20 μM; 10 μM ATP; read-out: Inhibitory Activity against ROS (IC50)
Procedure: (§1) Kinase screening was performed using a “HotSpot” assay platform commercially available from Reaction Biology Corporation. For this kinase screening, reaction buffers were based on 20 mM Hepes (pH 7.5), 10 mM MgCl2, 1 mM EGTA, 0.02% Brij35, 0.02 mg/mL BSA, 0.1 mM Na3VO4, 2 mM DTT, and 1% DMSO, with supplementary factors necessary for respective kinase reactions added thereto. In each enzyme reaction, […] of each kinase was used together with a fresh reaction buffer and appropriate supplementary factors. A solution of each compound in DMSO was added in a suitable concentration to the reaction buffer. Kinase reaction started with the introduction of […] (specific activity […]) and continued for 2 hours at room temperature.
The reaction was performed with 10 μM ATP.

45 different kinases = assay: Kinase selectivity from screening over 45 different kinases; type: biochemical
Procedure: as §1
1) Screening of Compounds Over 45 Different Kinases
Each compound was tested twice at a single dose concentration of 10 μM. […] The reaction was performed with 10 μM ATP.

ROS kinase [2] = target: T1, ROS kinase; parameters: literature Reaction Biology Corporation; conditions: Data from Reaction Biology corporation (website); read-out: Inhibitory Activity against ROS (IC50); cited from earlier work

T1 sequence (P08922 28-2347): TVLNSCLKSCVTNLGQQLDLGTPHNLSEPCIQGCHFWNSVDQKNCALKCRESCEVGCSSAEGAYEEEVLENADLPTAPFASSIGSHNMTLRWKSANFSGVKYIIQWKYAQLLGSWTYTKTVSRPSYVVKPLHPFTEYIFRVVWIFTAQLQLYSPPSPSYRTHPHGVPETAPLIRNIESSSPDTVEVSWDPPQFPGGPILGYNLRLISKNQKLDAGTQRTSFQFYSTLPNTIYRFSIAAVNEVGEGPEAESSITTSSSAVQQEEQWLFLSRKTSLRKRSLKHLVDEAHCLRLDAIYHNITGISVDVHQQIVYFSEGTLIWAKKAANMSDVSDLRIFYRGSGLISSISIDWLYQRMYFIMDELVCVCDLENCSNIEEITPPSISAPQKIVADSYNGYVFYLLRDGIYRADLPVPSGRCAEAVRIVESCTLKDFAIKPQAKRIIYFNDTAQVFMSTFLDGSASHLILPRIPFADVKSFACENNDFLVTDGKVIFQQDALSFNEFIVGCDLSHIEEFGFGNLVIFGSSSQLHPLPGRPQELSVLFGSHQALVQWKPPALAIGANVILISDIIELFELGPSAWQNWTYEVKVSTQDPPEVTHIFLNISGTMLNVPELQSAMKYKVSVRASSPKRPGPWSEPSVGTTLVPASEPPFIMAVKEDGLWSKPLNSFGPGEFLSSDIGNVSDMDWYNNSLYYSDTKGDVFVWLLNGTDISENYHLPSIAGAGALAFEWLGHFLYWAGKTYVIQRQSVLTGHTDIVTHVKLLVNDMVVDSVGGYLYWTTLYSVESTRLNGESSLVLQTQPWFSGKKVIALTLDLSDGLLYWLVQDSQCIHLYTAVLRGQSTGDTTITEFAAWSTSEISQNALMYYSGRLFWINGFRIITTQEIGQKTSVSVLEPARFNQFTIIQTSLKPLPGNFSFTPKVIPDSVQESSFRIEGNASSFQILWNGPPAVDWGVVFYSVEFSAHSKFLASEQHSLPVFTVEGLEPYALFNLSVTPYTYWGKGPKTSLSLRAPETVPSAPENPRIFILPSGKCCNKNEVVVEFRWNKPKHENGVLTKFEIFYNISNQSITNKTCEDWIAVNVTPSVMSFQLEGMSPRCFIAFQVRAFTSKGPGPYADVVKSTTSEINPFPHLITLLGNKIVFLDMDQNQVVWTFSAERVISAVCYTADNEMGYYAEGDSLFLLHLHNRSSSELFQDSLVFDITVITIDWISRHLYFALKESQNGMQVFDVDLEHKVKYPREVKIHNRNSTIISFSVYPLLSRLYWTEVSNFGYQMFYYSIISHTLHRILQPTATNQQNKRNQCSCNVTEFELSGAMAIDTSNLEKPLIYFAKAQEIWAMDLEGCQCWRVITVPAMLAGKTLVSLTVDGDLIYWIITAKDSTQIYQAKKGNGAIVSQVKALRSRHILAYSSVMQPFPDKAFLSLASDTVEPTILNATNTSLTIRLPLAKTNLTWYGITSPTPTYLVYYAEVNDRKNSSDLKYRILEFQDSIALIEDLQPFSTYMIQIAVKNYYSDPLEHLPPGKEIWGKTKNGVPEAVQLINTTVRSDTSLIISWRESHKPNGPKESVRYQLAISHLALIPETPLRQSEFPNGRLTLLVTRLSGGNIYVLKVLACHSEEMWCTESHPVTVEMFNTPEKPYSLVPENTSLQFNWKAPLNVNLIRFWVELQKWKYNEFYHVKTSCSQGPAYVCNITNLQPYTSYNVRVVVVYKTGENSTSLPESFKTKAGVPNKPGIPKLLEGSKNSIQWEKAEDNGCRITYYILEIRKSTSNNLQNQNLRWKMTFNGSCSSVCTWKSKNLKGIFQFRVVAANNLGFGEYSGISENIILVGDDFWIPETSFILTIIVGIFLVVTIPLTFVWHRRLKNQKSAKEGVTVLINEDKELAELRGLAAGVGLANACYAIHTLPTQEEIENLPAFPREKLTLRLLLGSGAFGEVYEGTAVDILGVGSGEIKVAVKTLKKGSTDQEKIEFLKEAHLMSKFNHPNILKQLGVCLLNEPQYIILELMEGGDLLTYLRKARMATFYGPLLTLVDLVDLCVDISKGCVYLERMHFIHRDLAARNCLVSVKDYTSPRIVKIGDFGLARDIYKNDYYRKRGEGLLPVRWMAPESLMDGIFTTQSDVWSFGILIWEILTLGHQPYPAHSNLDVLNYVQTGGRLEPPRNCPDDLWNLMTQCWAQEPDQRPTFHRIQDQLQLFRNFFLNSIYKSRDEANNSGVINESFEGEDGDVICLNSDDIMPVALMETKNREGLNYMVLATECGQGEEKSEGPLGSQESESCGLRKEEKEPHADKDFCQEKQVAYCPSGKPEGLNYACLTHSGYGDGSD

Compound | pIC50 (ROS kinase [1]) | Notes (selectivity for ROS) (45 different kinases) | pIC50 (ROS kinase [2])
Cc1cc(O)cc(-c2nn(CC#N)cc2-c2ccnc(-c3cccnc3)c2)c1 [Example 44, [3-(3-hydroxy-5-methylphenyl)-4-(2-(pyridin-3-yl)pyridin-4-yl)-pyrazol-1-yl]acetonitrile] | 6.68 | ROS selectivity; also recorded: Selective for ROS | 
PDGFR I-III |  |  | 4.32

From patent US8273880B2, “Pyrazole compounds with inhibitory activity against ROS kinase” (Korea Institute of Science and Technology, priority 2009, dated 2012)
